From patent publication US8309790B2, “Animal models for demyelination disorders” (University of Chicago, priority 2005, dated 2012)
Where two headings read alike, the source gives them in different places.

B1: suppressor of cytokine signaling 1 (protein, UniProt O35716 1-212, looked up)
Suppressor of cytokine …: MVARNQVAADNAISPAAEPRRRSEPSSSSSSSSPAAPVRPRPCPAVPAPAPGDTHFRTFRSHSDYRRITRTSALLDACGFYWGPLSVHGAHERLRAEPVGTFLVRDSRQRNCFFALSVKMASGPTSIRVHFQAGRFHLDGSRETFDCLFELLEHYVAAPRRMLGAPLRQRRVRPLQELCRQRIVAAVGRENLARIPLNPVLRDYLSSFPFQI
modifications: Flag tag

Experiments:
[1] = tested on: Hippocampal organotypic cultures; experiment: Hippocampal organotypic cultures (HOC), in vitro model of myelination, MBP Western blot; assay type: cell-based; conditions: for reduction of MBP expression elicited by IFN-γ exposure: SAL at various concentrations combined with 100 U/ml IFN-γ for 7 days
Experimental: Our hypothesis is that the integrated stress response has the potential to protect oligodendrocytes from the harmful effects of the inflammatory response in patients with multiple sclerosis (MS). […] To test whether agents that prolong eIF2α phosphorylation might provide protection to oligodendrocytes against detrimental inflammatory factors, the effect of Salubrinol (Sal) in the presence of the immune cytokine IFN-γ was tested in an in vitro model of myelination.
HOCs, were prepared and maintained as described previously (Kunkler and Kraig (1997) J Cereb Blood Flow Metab. 17:26-43), and were maintained in vitro for 7 days before use. SAL at various concentrations was combined with 100 U/ml IFN-γ and added to the HOC cultures for 7 days. […] After 7 days of 100 U/ml IFN-γ exposure, the levels of MBP decreased approximately 80% in the HOCs (FIG. 29).

PP1-GADD34 phosphatase = conditions: results in sustained eIF2α phosphorylation, cited from earlier work
[2] = tested on: transgenic littermates overexpressing IFN-γ and/or SOCS1; experiment: IFN-γ-overexpressing mice crossed to PLP/SOCS1 mice, clinical and histological evaluation at postnatal day 21; assay type: in vivo; conditions: for Incidence of tremor: ten mice per group; for oligodendrocyte density: corpus callosum, postnatal day 21
Description: The transgenic mice MBP/IFN-γ and GFAP/tTA×TRE/IFN-γ (lines 184/110 and 184/67) that overexpress IFN-γ in the CNS have been described elsewhere (Corbin et al., 1996; Gao et al., 2000; Lin et al., 2004, 2005). Briefly, MBP/IFN-γ mice are transgenic animals in which IFN-γ expression is driven by the myelin basic protein (MBP) transcriptional control region (Gao et al., 2000). GFAP/tTA×TRE/IFN-γ are double-transgenic mice obtained by mating single-transgenic GFAP/tTA to single-transgenic TRE/IFN-γ (lines 110 and 67) mice. The two TRE/IFN-γ mouse lines, line 110 and line 67, used in the experiments produce different amounts of IFN-γ when crossed to GFA/tTA mice (184/110 and 184/67) (Lin e al., 2004, 2005). GFAP/tTA×TRE/IFN-γ is a tetracycline-off-inducible system in which the glial fibrilary acidic protein (GFAP) transcriptional control region drives the expression of tTA, which in turn, binds to the TRE (tet responsive element) and initiates the expression of IFN-γ. Administration of doxycycline suppresses tTA DNA binding and IFN-γ expression, and doxycycline removal allows for temporally-controlled induction of IFN-γ expression (Gao et al., 1999).
IFN-γ-overexpressing mice were crossed to the PLP/SOCS1 mice in double-transgenic, (MBP/IFN-γ×PLP/SOCS1) and triple-transgenic (GFAP/tTA×TRE/IFN-γ×PLP/SOCS1) mating systems. MBP/IFN-γ×PLP/SOCS1 (172×PLP/SOCS1) mating was performed according to a standard mating protocol. The GFAP/tTA×TRE/IFN-γ×PLP/SOCS1 matings were performed in a 2-step mating process: GFAP/tTA mice were initially crossed to PLP/SOCS1 mice, and double-positive (184×PLP/SOCS1) offspring were then crossed to the TRE/IFN-γ lines 110 and 67, separately. This second mating step was performed according to the previously described “tet-off” protocol. Doxycycline 0.05 mg/ml (Sigma-Aldich) was added to the water of impregnated female mice until embryonic day 14, after which the animals were switched back to normal water, thereby allowing initiation of IFN-γ transcription, which peaks during the postnatal period (Lin et al., 2005).
The litters of the mating systems (F1 generation) were examined daily and sacrificed at postnatal day 21. Clinical evaluation included behavioral observation and challenged ladder walking to elicit tremor. Histological examination included quantitation of the number and density of oligodendrocytes and examination of the myelination patterns. Brain tissue was simultaneously obtained from each animal at the time of sacrifice to verify and measure the expression of IFN-γ and Flag-SOCS1 (see below). The clinical and histological findings were subsequently stratified according to genotype. All animal procedures were conducted in compliance with the National Institutes of Health Guide for Care and Use of Laboratory Animals and were approved by the Institutional Animal Care and Use Committee at The University of Chicago.
Oligodendrocyte cell density was assessed digitally using Axiovision software, at postnatal day 21, as previously described (Lin et al., 2005). The brains were sectioned sagittally through the corpus callosum dividing the brain in two symmetrical halves. Ten frozen sections from each half were prepared at 7 μm thickness, and numbered in the sequence of their preparation. The brains of three animals per study group were prepared in this fashion. Following the CC1 immunostaining the corresponding area of corpus callosum of each section was digitally selected and the corresponding total area obtained. CC1 cell counting was performed manually within the selected areas of each section, and the number of CC1 positive cells per square area (mm^2) calculated. The results were presented as mean±SD of CC1 (+) cells/mm^2 with n=3 animals per study group. […]

| Molecule | reduction of MBP expression elicited by IFN-γ exposure [1] | reduction of MBP expression elicited by IFN-γ exposure ([1]; listed as Sal) | MBP expression ([1]; SAL treatment alone) | PP1-GADD34 phosphatase activity (PP1-GADD34 phosphatase) | PP1-GADD34 phosphatase activity (PP1-GADD34 phosphatase; listed as Salubrinol) | Incidence of tremor ([2]; 172 × PLP/SOCS1 mating system) [%] | Incidence of tremor ([2]; 184/67 × PLP/SOCS1 mating system) [%] | oligodendrocyte density ([2]; 184/67 × PLP/SOCS1 system) | Incidence of tremor ([2]; 184/110 × PLP/SOCS1 mating system) [%] | oligodendrocyte density ([2]; 184/110 × PLP/SOCS1 system) |
| --- | --- | --- | --- | --- | --- | --- | --- | --- | --- | --- |
| O=C(/C=C/c1ccccc1)NC(NC(=S)Nc1cccc2cccnc12)C(Cl)(Cl)Cl (stereo not shown) [SAL, salubrinal] | markedly attenuated | attenuating effect | did not affect | specifically inhibits | specifically inhibit |  |  |  |  |  |
| B1 |  |  |  |  |  | 0 | 0 | 142±5 CC1 (+) cells/mm^2 | 0 | 141±6 CC1 (+) cells/mm^2 |
